# Experiments:
# [1] = test system: blood vessel of the mesentery; test: LPS-induced vascular disorder of the mesentery, bleeding and leukocyte rolling; format: in vivo, rat
# From the text: Eight-week-old or older female rats (Wistar, body weight: approximately 200 g, n=1) were anesthetized by subcutaneous administration of urethane (1.75 g/kg body weight). The rats were then opened and fixed on a fixing table in such a manner that the mesentery of the rats was observable. After the fixing, the fixing table was placed under a microscope (Nikon OPTIphoto, produced by Nikon Corporation) so that the mesentery could be observed. In addition, a catheter was placed in the groin vein of the rat.
# 1μg/ml of lipopolysaccharide (LPS) (produced by Sigma-Aldrich Co., Ltd.) derived from Pseudomonas aeruginosa (ATCC27316) was added dropwise once (20 μl, 20 ng/sight) and allowed to stand for 30 minutes. Next, a saline solution containing BisEP-C3 prepared in the same manner as in Example 9 was rapidly administered intravenously via the catheter so as to be 1 mg/kg body weight. After the intravenous administration, the saline solution was administered continuously so as to be 1 mg/kg body weight per hour (0.15 ml/hour). […] In the obtained photograph, the area of the region where bleeding occurred (bleeding area) was detected based on the number of pixels, and then the proportion of the area (bleeding area proportion) occupied per visual field was calculated. […]
# [2] = test system: rat auricular subcutaneous blood vessel; test: Vasodilation in vivo, blood vessel diameter after intravenous administration
# Protocol: Eight-week-old or older female rats (Wistar, body weight: approximately 200 g, n=1) were anesthetized by subcutaneous administration of urethane so as to be […] body weight. The hair of the auricles of the rats was then removed and the rats were fixed on a fixing table. After the fixing, the fixing table was placed under a microscope (Nikon OPTIphoto, produced by Nikon Corporation). In addition, a catheter was placed in the groin vein of the rat.
# BisEP-C3 was dissolved in a saline solution to achieve a concentration of 3 mg/ml. The resulting saline solution containing BisEP-C3 was administered intravenously via the catheter so as to be 3 mg/kg body weight. Then, the hemodynamic course of the rat auricular subcutaneous blood vessel was photographed and recorded using a microscope at a predetermined period (30, 60, 120 or 180 minutes) before and after the administration.
# The obtained images were classified into three blood vessel thicknesses (thick: 35-45 μm, medium: 15-20 μm, thin: 7-9 μm) based on the diameter of the blood vessel before administration. […] Further, for each selected site, the relative blood vessel diameter was calculated after the measurement of the blood vessel diameter, with the blood vessel diameter before administration being a reference (1). […] As a control, the blood vessel diameter was calculated in the same manner except that the saline solution was administered.
compound,measurement,setting,value
"CCN1N=C(C)/C(=C\C=C\c2c(C)nn(CC)c2O)C1=O [BisEp-C3, 2,4-dihydro-4-[3-(1-ethyl-5-hydroxy-3-methyl-1H-pyrazol-4-yl)-2-propen-1-ylidene]-2-ethyl-5-methyl-3H-pyrazol-3-one]",bleeding area and bleeding area proportion,"[1]; LPS instillation, 1 mg/kg intravenously then 1 mg/kg per hour, up to 180 minutes, FIGS. 12 and 13",no bleeding was observed
same,rolling phenomena of leukocytes,"[1]; after LPS instillation, compared to the control",a large number of rolling phenomena of leukocytes were observed
same,relative value of the blood vessel diameter,"[2]; 3 mg/kg body weight intravenously, 30, 60, 120 or 180 minutes, versus saline control, FIG. 10",dilated at any time after administration as compared to the control
same,severity of dilatation by blood vessel size,"[2]; thick 35-45 μm, medium 15-20 μm, thin 7-9 μm, 3 mg/kg intravenously",remarkably observed in the smaller blood vessels
